Assay results reported in patent publication US20250154144A1 (CHILDREN'S HOSPITAL MEDICAL CENTER, priority 2021, published 2025).
Positions count from the first letter of the chain named.

What was measured:
[1] = target: T1, FLT3 D835H (Homo sapiens, UniProt P36888, D835H); experiment: DiscoverX KINOMEscan competition binding, FLT3 D835H
T1 construct: purchased DiscoverX (KINOMEscan)
T1 sequence (P36888 27-993 D835H): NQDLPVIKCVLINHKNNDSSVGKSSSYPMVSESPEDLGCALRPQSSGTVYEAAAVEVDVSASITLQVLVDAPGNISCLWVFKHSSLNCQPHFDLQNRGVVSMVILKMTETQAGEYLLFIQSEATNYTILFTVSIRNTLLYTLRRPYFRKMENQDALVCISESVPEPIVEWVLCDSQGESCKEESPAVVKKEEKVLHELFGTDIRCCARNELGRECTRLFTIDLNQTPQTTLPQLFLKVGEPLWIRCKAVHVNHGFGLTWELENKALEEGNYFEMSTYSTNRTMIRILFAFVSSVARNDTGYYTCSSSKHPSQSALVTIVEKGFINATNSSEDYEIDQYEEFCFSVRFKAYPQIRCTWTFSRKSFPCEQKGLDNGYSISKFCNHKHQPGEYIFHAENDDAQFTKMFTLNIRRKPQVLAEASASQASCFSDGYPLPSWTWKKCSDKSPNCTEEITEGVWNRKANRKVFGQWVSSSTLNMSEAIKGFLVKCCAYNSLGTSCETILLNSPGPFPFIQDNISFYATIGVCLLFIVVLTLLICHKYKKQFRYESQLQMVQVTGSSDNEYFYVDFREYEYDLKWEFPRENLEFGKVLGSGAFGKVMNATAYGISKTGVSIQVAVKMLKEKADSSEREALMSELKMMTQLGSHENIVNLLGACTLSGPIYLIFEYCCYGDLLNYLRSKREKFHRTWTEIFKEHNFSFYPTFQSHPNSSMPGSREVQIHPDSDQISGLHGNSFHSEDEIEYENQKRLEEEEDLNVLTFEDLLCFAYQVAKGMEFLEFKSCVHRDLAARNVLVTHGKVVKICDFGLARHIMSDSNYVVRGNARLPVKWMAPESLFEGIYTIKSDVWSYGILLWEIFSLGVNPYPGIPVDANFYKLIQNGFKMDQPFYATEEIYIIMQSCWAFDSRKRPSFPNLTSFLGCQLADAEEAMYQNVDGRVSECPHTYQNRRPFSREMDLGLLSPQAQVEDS

[2] = target: T2, FLT3 D835V (Homo sapiens, UniProt P36888, D835V); experiment: DiscoverX KINOMEscan competition binding, FLT3 D835V
T2 construct: purchased DiscoverX (KINOMEscan)
T2 sequence (P36888 27-993 D835V): T1 sequence (P36888 27-993 D835H) with H809V

[3] = test system: MOLM14 D835Y cells; experiment: cells; type: cell-based; conditions: Homo sapiens, MOLM-14, 48 h, 48 hours, Cell Titer Glo; read-out: MOLM14 D835Y IC50
[4] = target: T3, IRAK1 (Homo sapiens, UniProt P51617); experiment: RBC HotSpot Kinase Assay, IRAK1; conditions: IRAK1 IC50
[5] = target: T4, IRAK4 (Homo sapiens, UniProt Q9NWZ3); experiment: RBC HotSpot Kinase Assay, IRAK4; conditions: IRAK4 IC50
T4 sequence (Q9NWZ3 1-460): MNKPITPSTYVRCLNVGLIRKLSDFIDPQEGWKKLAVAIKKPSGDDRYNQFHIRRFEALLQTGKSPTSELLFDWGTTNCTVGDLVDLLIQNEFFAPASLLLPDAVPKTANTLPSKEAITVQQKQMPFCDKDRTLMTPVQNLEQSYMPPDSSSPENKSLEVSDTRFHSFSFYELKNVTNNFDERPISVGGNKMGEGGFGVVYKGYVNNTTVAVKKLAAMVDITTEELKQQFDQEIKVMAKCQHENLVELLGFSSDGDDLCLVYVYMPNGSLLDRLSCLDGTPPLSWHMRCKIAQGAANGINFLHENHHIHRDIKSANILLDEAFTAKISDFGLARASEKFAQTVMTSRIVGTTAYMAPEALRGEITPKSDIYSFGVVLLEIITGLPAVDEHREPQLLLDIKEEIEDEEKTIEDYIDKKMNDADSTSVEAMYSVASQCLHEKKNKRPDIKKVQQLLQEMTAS

[6] = target: T3, IRAK1; experiment: DiscoverX KINOMEscan competition binding, IRAK1; set-up: purchased RBC (Reaction Biology) HotSpot assay
[7] = target: T4, IRAK4; experiment: DiscoverX KINOMEscan competition binding, IRAK4; set-up: purchased RBC (Reaction Biology) HotSpot assay

T3 sequence (P51617 whole entry): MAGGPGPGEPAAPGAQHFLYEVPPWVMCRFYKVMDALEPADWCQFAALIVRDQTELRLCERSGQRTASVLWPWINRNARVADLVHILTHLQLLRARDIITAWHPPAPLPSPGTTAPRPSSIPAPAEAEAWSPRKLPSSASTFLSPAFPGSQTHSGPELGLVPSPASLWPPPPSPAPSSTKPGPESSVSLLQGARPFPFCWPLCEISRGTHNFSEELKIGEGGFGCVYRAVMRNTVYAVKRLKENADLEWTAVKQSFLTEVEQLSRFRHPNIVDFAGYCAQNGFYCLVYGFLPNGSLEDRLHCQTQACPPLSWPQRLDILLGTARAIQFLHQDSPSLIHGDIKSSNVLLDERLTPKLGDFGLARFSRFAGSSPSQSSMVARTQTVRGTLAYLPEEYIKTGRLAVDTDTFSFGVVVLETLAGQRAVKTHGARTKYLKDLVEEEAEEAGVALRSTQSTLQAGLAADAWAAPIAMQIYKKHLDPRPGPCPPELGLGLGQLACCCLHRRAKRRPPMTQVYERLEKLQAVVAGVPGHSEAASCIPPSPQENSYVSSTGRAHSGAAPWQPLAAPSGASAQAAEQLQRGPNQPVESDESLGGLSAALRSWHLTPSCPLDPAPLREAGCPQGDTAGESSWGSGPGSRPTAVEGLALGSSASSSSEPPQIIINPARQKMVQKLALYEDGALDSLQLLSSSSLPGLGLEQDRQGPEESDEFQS

Structure (SMILES)	Kd [1] [nM]	Kd [2] [nM]	IC50 [3] [nM]	IC50 [4] [nM]	IC50 [5] [nM]	Kd [6] [nM]	Kd [7] [nM]
F[C@H]1CCNC[C@@H]1Nc1cncc(-c2cnc3cc(OC4CC4)ccn23)n1 [Compound 12, 6-(7-cyclopropoxyimidazo[1,2-a]pyridin-3-yl)-N-((3S,4S)-4-fluoropiperidin-3-yl)pyrazin-2-amine]	1.1	0.16	34	18	2	7.5	0.81
COc1cc2ncc(-c3cncc(N[C@H]4CNCC[C@@H]4F)n3)n2nc1C1CC1 [Compound 24, 6-(6-cyclopropyl-7-methoxyimidazo[1,2-b]pyridazin-3-yl)-N-((3S,4S)-4-fluoropiperidin-3-yl)pyrazin-2-amine]	0.33	0.063	–	40	0.7	5.3	0.22
COc1cc2ncc(-c3cncc(N[C@H]4CNC[C@@H]4F)n3)n2nc1C1CC1 [Compound 22, 6-(6-cyclopropyl-7-methoxyimidazo[1,2-b]pyridazin-3-yl)-N-((3S,4S)-4-fluoropyrrolidin-3-yl)pyrazin-2-amine]	0.87	0.15	–	61	1	6.4	0.84
COc1cc2ncc(-c3ccnc(N[C@@H]4CCCNC4)n3)n2cc1C(C)(C)O [Compound 44, (R)-2-(7-methoxy-3-(2-(piperidin-3-ylamino)pyrimidin-4-yl)imidazo[1,2-a]pyridin-6-yl)propan-2-ol]	0.28	0.042	11	1	< 0.5	0.3	0.072
COc1cc2ncc(-c3ccnc(N[C@H]4CNCC[C@@H]4F)n3)n2nc1C1CC1 [Compound 51, 4-(6-cyclopropyl-7-methoxyimidazo[1,2-b]pyridazin-3-yl)-N-((3S,4S)-4-fluoropiperidin-3-yl)pyrimidin-2-amine]	0.47	0.11	6	11	0.6	2.4	0.57

More lines, now with the values ahead:

Kd [1] [nM]	Kd [2] [nM]	IC50 [3] [nM]	IC50 [4] [nM]	IC50 [5] [nM]	Kd [6] [nM]	Kd [7] [nM]	Structure (SMILES)
1.1	0.47	55	3	0.7	1.5	0.38	CC(O)(c1cn2c(-c3ccnc(N[C@H]4CNCC[C@@H]4F)n3)cnc2cn1)C(F)(F)F (single isomer, unassigned) [Compound 72]
–	–	17	63	4	–	–	COc1cc2ncc(-c3ccnc(N[C@@H]4CCCNC4)n3)n2nc1C1CC1 [Compound 50, (R)-4-(6-cyclopropyl-7-methoxyimidazo[1,2-b]pyridazin-3-yl)-N-(piperidin-3-yl)pyrimidin-2-amine]
0.46	0.06	24	11	1	2.6	0.56	COc1cc2ncc(-c3ccnc(N[C@H]4CNC[C@@H]4F)n3)n2nc1C1CC1 [Compound 49, 4-(6-cyclopropyl-7-methoxyimidazo[1,2-b]pyridazin-3-yl)-N-((3S,4S)-4-fluoropyrrolidin-3-yl)pyrimidin-2-amine]
